# Assay results: PubChem BioAssay AID449764 (Southern Research Specialized Biocontainment Screening …, 2010)
# Tested on: Mycobacterium tuberculosis H37Rv growth inhibition, no glycerol
# Test: Mycobacterium tuberculosis H37Rv growth inhibition, no glycerol, confirmatory dose response (AID 449764);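 note: growth read after 7 days of incubation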
# Details: for IC90: measured here: IC90 growth inhibition
Compound,IC50,IC90
Cc1ccc(/C=C(\NC(=O)c2ccc(C)cc2)c2nc(=S)[nH][nH]2)cc1,45.6 µM,49.5 µM
O=C(NC(=S)N1CCc2ccccc21)c1ccc(Br)o1,10.5 µM,15.5 µM
